Source: patent US12479840B2, “HMG-CoA reductase degradation inducing compound” (Uppthera, priority 2020, dated 2025)

The compounds below were run against T1, HMG-CoA reductase (Homo sapiens, UniProt P04035) (assay: HMG-CoA reductase (HMGCR) degradation in HepG2 cells by western blotting). Settings: treated for 18 hours, ratio of HMG-CoA reductase to GAPDH, read-out: DC50.
T1 construct: endogenous in cells; host or cells: HepG2 (Korea Cell Line Bank)
T1 sequence (P04035 1-888): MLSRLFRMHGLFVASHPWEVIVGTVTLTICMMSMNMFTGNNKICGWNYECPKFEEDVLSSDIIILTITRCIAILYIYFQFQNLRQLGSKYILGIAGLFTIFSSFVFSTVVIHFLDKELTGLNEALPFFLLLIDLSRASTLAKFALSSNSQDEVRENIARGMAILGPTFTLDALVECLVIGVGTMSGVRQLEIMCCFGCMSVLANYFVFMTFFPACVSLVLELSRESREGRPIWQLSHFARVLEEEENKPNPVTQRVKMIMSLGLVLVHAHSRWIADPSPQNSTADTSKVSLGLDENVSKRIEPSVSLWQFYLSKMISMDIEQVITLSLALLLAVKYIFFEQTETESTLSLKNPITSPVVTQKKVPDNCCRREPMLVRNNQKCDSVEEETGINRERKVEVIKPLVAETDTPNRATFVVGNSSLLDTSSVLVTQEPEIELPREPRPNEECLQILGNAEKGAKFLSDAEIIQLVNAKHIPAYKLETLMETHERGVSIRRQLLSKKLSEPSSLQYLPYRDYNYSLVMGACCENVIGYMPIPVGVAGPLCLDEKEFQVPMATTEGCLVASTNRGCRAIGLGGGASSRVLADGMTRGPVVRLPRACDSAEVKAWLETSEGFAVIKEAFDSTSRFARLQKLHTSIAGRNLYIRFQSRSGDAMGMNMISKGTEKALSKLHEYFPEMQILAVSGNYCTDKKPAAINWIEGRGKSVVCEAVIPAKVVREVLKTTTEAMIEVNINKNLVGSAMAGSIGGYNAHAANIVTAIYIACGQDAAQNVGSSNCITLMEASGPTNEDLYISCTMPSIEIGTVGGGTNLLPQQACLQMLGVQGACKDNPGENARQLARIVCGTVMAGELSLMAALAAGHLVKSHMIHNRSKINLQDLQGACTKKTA
Format: cell-based
How it was run: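 HepG2 cells (passage P105–P110) treated 18 hours with compounds in 10-point three-fold dilutions from 3 μM. RIPA lysates (15 μg protein, BCA-quantified) run on SDS-PAGE and immunoblotted for HMGCR (1:500) with GAPDH (1:20000) as loading control, primary antibodies 16 hours at 4° C.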
In the case of `C[C@H]1C=C2C=C[C@H](C)[C@H](CC[C@@H]3C[C@@H](O[Si](C)(C)C(C)(C)C)CC(=O)O3)[C@H]2[C@@H](OC(=O)NCCOCCCOCCNc2cccc3c2C(=O)N(C2CCC(=O)NC2=O)C3=O)C1` (stereo partly drawn) [Compound 90, (1S,3R,7S,8S,8aR)-8-(2-((2R,4R)-4-((tert-butyldimethylsilyl)oxy)-6-oxotetrahydro-2H-pyran-2-yl)ethyl)-3,7-dimethyl-1,2,3,7,8,8a-hexahydronaphthalen-1-yl (2-(3-(2-((2-(2,6-dioxopiperidin-3-yl)-1,3-dioxoisoindolin-4-yl)amino)ethoxy)propoxy)ethyl)carbamate], the DC50 is reported as less than 50 nM. `C[C@H]1C=C2C=C[C@H](C)[C@H](CC[C@@H]3C[C@@H](O)CC(=O)O3)[C@H]2[C@@H](OC(=O)NCCOCCCOCCNc2cccc3c2C(=O)N(C2CCC(=O)NC2=O)C3=O)C1` (stereo partly drawn) [Compound 91, (1S,3R,7S,8S,8aR)-8-(2-((2R,4R)-4-hydroxy-6-oxotetrahydro-2H-pyran-2-yl)ethyl)-3,7-dimethyl-1,2,3,7,8,8a-hexahydronaphthalen-1-yl (2-(3-(2-((2-(2,6-dioxopiperidin-3-yl)-1,3-dioxoisoindolin-4-yl)amino)ethoxy)propoxy)ethyl)carbamate] gave a DC50 of less than 50 nM. `C[C@H]1C=C2C=C[C@H](C)[C@H](CC[C@@H]3C[C@@H](O[Si](C)(C)C(C)(C)C)CC(=O)O3)[C@H]2[C@@H](OC(=O)NCCOCCOCCCNc2cccc3c2C(=O)N(C2CCC(=O)NC2=O)C3=O)C1` (stereo partly drawn) [Compound 92, (1S,3R,7S,8S,8aR)-8-(2-((2R,4R)-4-((tert-butyldimethylsilyl)oxy)-6-oxotetrahydro-2H-pyran-2-yl)ethyl)-3,7-dimethyl-1,2,3,7,8,8a-hexahydronaphthalen-1-yl (2-(2-(3-((2-(2,6-dioxopiperidin-3-yl)-1,3-dioxoisoindolin-4-yl)amino)propoxy)ethoxy)ethyl)carbamate] showed a DC50 of less than 50 nM. `C[C@H]1C=C2C=C[C@H](C)[C@H](CC[C@@H]3C[C@@H](O)CC(=O)O3)[C@H]2[C@@H](OC(=O)NCCOCCOCCCNc2cccc3c2C(=O)N(C2CCC(=O)NC2=O)C3=O)C1` (stereo partly drawn) [Compound 93, (1S,3R,7S,8S,8aR)-8-(2-((2R,4R)-4-hydroxy-6-oxotetrahydro-2H-pyran-2-yl)ethyl)-3,7-dimethyl-1,2,3,7,8,8a-hexahydronaphthalen-1-yl (2-(2-(3-((2-(2,6-dioxopiperidin-3-yl)-1,3-dioxoisoindolin-4-yl)amino)propoxy)ethoxy)ethyl)carbamate] showed a DC50 of less than 50 nM. `C[C@H]1C=C2C=C[C@H](C)[C@H](CC[C@@H]3C[C@@H](O[Si](C)(C)C(C)(C)C)CC(=O)O3)[C@H]2[C@@H](OC(=O)NCCCOCCCOCCCNc2cccc3c2C(=O)N(C2CCC(=O)NC2=O)C3=O)C1` (stereo partly drawn) [Compound 94, (1S,3R,7S,8S,8aR)-8-(2-((2R,4R)-4-((tert-butyldimethylsilyl)oxy)-6-oxotetrahydro-2H-pyran-2-yl)ethyl)-3,7-dimethyl-1,2,3,7,8,8a-hexahydronaphthalen-1-yl (3-(3-(3-((2-(2,6-dioxopiperidin-3-yl)-1,3-dioxoisoindolin-4-yl)amino)propoxy)propoxy)propyl)carbamate] showed a DC50 of less than 50 nM. For `C[C@H]1C=C2C=C[C@H](C)[C@H](CC[C@@H]3C[C@@H](O)CC(=O)O3)[C@H]2[C@@H](OC(=O)NCCCOCCCOCCCNc2cccc3c2C(=O)N(C2CCC(=O)NC2=O)C3=O)C1` (stereo partly drawn) [Compound 95, (1S,3R,7S,8S,8aR)-8-(2-((2R,4R)-4-hydroxy-6-oxotetrahydro-2H-pyran-2-yl)ethyl)-3,7-dimethyl-1,2,3,7,8,8a-hexahydronaphthalen-1-yl (3-(3-(3-((2-(2,6-dioxopiperidin-3-yl)-1,3-dioxoisoindolin-4-yl)amino)propoxy)propoxy)propyl)carbamate], the DC50 was 50 to 500 nM. `C[C@H]1C=C2C=C[C@H](C)[C@H](CC[C@@H]3C[C@@H](O[Si](C)(C)C(C)(C)C)CC(=O)O3)[C@H]2[C@@H](OC(=O)NCCCCCCCCNC(=O)COc2cccc3c2C(=O)N(C2CCC(=O)NC2=O)C3=O)C1` (stereo partly drawn) [Compound 96, (1S,3R,7S,8S,8aR)-8-(2-((2R,4R)-4-((tert-butyldimethylsilyl)oxy)-6-oxotetrahydro-2H-pyran-2-yl)ethyl)-3,7-dimethyl-1,2,3,7,8,8a-hexahydronaphthalen-1-yl (8-(2-((2-(2,6-dioxopiperidin-3-yl)-1,3-dioxoisoindolin-4-yl)oxy)acetamido)octyl)carbamate] showed a DC50 of 50 to 500 nM. `C[C@H]1C=C2C=C[C@H](C)[C@H](CC[C@@H]3C[C@@H](O)CC(=O)O3)[C@H]2[C@@H](OC(=O)NCCCCCCCCNC(=O)COc2cccc3c2C(=O)N(C2CCC(=O)NC2=O)C3=O)C1` (stereo partly drawn) [Compound 97, (1S,3R,7S,8S,8aR)-8-(2-((2R,4R)-4-hydroxy-6-oxotetrahydro-2H-pyran-2-yl)ethyl)-3,7-dimethyl-1,2,3,7,8,8a-hexahydronaphthalen-1-yl (8-(2-((2-(2,6-dioxopiperidin-3-yl)-1,3-dioxoisoindolin-4-yl)oxy)acetamido)octyl)carbamate] was tested, and the DC50 was 50 to 500 nM. Work on `C[C@H]1C=C2C=C[C@H](C)[C@H](CC[C@@H]3C[C@@H](O[Si](C)(C)C(C)(C)C)CC(=O)O3)[C@H]2[C@@H](OC(=O)NCCOCCOCCOCC(=O)Nc2cccc3c2C(=O)N(C2CCC(=O)NC2=O)C3=O)C1` (stereo partly drawn) [Compound 98, (1S,3R,7S,8S,8aR)-8-(2-((2R,4R)-4-((tert-butyldimethylsilyl)oxy)-6-oxotetrahydro-2H-pyran-2-yl)ethyl)-3,7-dimethyl-1,2,3,7,8,8a-hexahydronaphthalen-1-yl (2-(2-(2-(2-((2-(2,6-dioxopiperidin-3-yl)-1,3-dioxoisoindolin-4-yl)amino)-2-oxoethoxy)ethoxy)ethoxy)ethyl)carbamate] yielded a DC50 of less than 50 nM. For `C[C@H]1C=C2C=C[C@H](C)[C@H](CC[C@@H]3C[C@@H](O)CC(=O)O3)[C@H]2[C@@H](OC(=O)NCCOCCOCCOCC(=O)Nc2cccc3c2C(=O)N(C2CCC(=O)NC2=O)C3=O)C1` (stereo partly drawn) [Compound 99, (1S,3R,7S,8S,8aR)-8-(2-((2R,4R)-4-hydroxy-6-oxotetrahydro-2H-pyran-2-yl)ethyl)-3,7-dimethyl-1,2,3,7,8,8a-hexahydronaphthalen-1-yl (2-(2-(2-(2-((2-(2,6-dioxopiperidin-3-yl)-1,3-dioxoisoindolin-4-yl)amino)-2-oxoethoxy)ethoxy)ethoxy)ethyl)carbamate], the DC50 was less than 50 nM. `C[C@H]1C=C2C=C[C@H](C)[C@H](CC[C@@H]3C[C@@H](O[Si](C)(C)C(C)(C)C)CC(=O)O3)[C@H]2[C@@H](OC(=O)NCCC(=O)NCCOCCNc2cccc3c2C(=O)N(C2CCC(=O)NC2=O)C3=O)C1` (stereo partly drawn) [Compound 100, (1S,3R,7S,8S,8aR)-8-(2-((2R,4R)-4-((tert-butyldimethylsilyl)oxy)-6-oxotetrahydro-2H-pyran-2-yl)ethyl)-3,7-dimethyl-1,2,3,7,8,8a-hexahydronaphthalen-1-yl (3-((2-(2-((2-(2,6-dioxopiperidin-3-yl)-1,3-dioxoisoindolin-4-yl)amino)ethoxy)ethyl)amino)-3-oxopropyl)carbamate] showed a DC50 of less than 50 nM.
